{"source": "patent US9957546B2", "about": "“Vivo detection of phospholipase activation” (THE TRUSTEES OF THE UNIVERSITY OF PENNSYLVANIA, priority 2008, dated 2018)", "key": {"DU145 prostate cells": {"system": "DU145 prostate cells", "experiment": "Cell uptake and in situ activation, laser confocal microscopy", "type": "cell-based, human", "details": "10 mM PB, 6 h"}, "[1]": {"experiment": "Quenching of Pyro fluorescence (fluorescence emission spectra)", "type": "physicochemical", "from_the_text": "In Pyro-PL-BHQ, BHQ acts as an effective quencher of Pyro fluorescence, reducing the fluorescence emission relative to Pyro-PL between 25-fold (for λex=675, λem=725 nm) and 45-fold (for λex=418, λem=695 nm) (FIG. 14)."}, "[2]": {"experiment": "Incorporation of Pyro-PL into PtdCho vesicles (self quenching/aggregation)", "type": "physicochemical", "details": "1 μM Pyro-PL, [PtdCho]>200 μM", "description": "A measured amount of Pyro-PL-BHQ or Pyro-PL (ε=110,000 M^−1 cm^−1 at 410 nm) was combined with PtdCho (chicken egg, Avanti Polar Lipids, Inc., Alabaster, Ala.) in chloroform and dried under a stream of nitrogen.\nIn order to determine the mole fraction (MF) at which all fluorophore can be assumed to be completely incorporated and intercalated into the PtdCho vesicles, an experiment was conducted in which the concentration of PtdCho was varied while Pyro-PL concentration was held constant at 1 μM (FIG. 4A). The fluorescence intensity increases as the Pyro-PL disperses into the PtdCho vesicles. The fluorescence plateaus at the point at which aggregation is negligible."}, "[3]": {"experiment": "In vivo distribution of Pyro-PL (Maestro spectral deconvolution, ex vivo IVIS organ imaging)", "set-up": "species or system mice", "description": "Methods for separation of probe fluorescence and autofluorescence have been developed that result in a more accurate detection of in vivo probe fluorescence. In FIG. 11, mice injected with the permanently fluorescent Pyro-PL are imaged with the CRI Maestro System, and the resulting images resolved into probe and autofluorescence on the basis of emission spectrum deconvolution. These images confirm that Pyro-PL localizes in the tumor within minutes, and persists for about 3 hours, consistent with FIGS. 12A and 13A. By 2 hours, the probe is also being removed from circulation, with concentration first in the liver, and then in the intestine for excretion in the stool."}, "[4]": {"experiment": "Tolerability of Pyro-PL in mice", "type": "in vivo"}, "PC-PLC [5]": {"biological_target": "PC-PLC (Bacillus cereus, UniProt P09598)", "sequence (P09598 39-283 limits assumed)": "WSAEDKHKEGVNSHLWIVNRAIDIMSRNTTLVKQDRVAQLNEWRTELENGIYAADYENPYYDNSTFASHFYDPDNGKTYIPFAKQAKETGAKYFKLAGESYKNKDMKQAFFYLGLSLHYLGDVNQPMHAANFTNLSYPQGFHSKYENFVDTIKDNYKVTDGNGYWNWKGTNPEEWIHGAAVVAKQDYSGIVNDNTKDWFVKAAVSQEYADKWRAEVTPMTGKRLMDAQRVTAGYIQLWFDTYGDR", "description": "Phospholipase (0.5 to 5 units) are added to 1 μM fluorophore-BHQ in PtdCho vesicles_(MF=0.05) to yield a final volume of 100 μL. Initial velocities are measured as a function of enzyme concentration. For bulk kinetics, an enzyme concentration that gives a linear response is chosen. The lipid dispersions is diluted in buffer such that the fluorophore-BHQ concentration varies from 0.3-3 μM. The temperature is held at 37° C. and phospholipase added to a total volume of 100 μL. The released fluorescence is measured and the initial velocities recorded as a function of bulk lipid concentration. A Lineweaver-Burke plot of 1/V0 vs 1/[S] gives a straight line with […] and y intercept of 1/Vmax. For interfacial kinetics, lipid dispersions of fluorophore-BHQ and PtdCho are diluted in Triton X-100 with the total lipid concentration held at 20 μM. The ratios of fluorophore-BHQ to PtdCho are held constant, but varied relative to the MF of Triton with a total MF of fluorophore-BHQ of =0.01-0.05). Initial velocities are recorded as a function of concentration, and kinetic parameters are calculated.\nActivity, in RFU/min/mg, was measured as a function of D609 concentration after the addition of 0.5 U PC-PLC (FIG. 2D)."}, "PC-PLC [6]": {"system": "PC-PLC", "details": "Amplex Red, resorufin fluorescence", "from_the_text": "To validate the presence of PC-PLC activity in DU145 tumor xenografts, the Amplex Red PC-PLC assay kit (Molecular Probes) was used to measure PC-PLC activity in extracts of excised tumors."}}, "data": [{"compound": "phenylbutyrate [PB]", "values": [{"measurement": "effect on Pyro-PL-BHQ fluorescence in cells", "setting": "DU145 prostate cells", "value": "fluorescence is increased"}]}, {"compound": "C=Cc1c(C)c2cc3nc(c4c5[nH]c(cc6nc(cc1[nH]2)C(C)=C6CC)c(C)c5C(=O)C4)C(CCC(=O)NCCCCCC(=O)OCC(COP(=O)([O-])OCC[N+](C)(C)C)OC(=O)CCCCCNC(=O)CCC1c2nc(cc4[nH]c(cc5nc(cc6[nH]c7c2CC(=O)c7c6C)C(CC)=C5C)c(C=C)c4C)C1C)C3C", "note": "(stereo not drawn) [PyroPyro-PL]", "values": [{"measurement": "quenching efficiency (second Pyro as acceptor)", "setting": "[1]", "value": "~4", "unit": "fold"}]}, {"compound": "C=Cc1c(C)c2cc3nc(c4c5[nH]c(cc6nc(cc1[nH]2)C(C)=C6CC)c(C)c5C(=O)C4)C(CCC(=O)OC(COC(=O)CCCCCCCCCCCCCCC)COP(=O)(O)OCCN)C3C", "note": "(stereo not drawn) [Pyro-PL]", "values": [{"measurement": "Pyro-PL mole fraction (MF) at which fluorescence plateaus (aggregation negligible)", "setting": "[2]", "value": "< 0.005"}, {"measurement": "organ fluorescence at 2 h", "setting": "[3]; 2 h", "value": "majority of the fluorescence appears in the liver"}, {"measurement": "organ fluorescence ex vivo at 24 h", "setting": "[3]; IVIS, 24 h", "value": "major fluorescence persisted in the liver, kidney and digestive tract"}, {"measurement": "time of accumulation in the tumor", "setting": "[3]; Maestro system", "value": "≤ 10", "unit": "min"}, {"measurement": "tolerability", "setting": "[4]", "value": "well tolerated by mice"}]}, {"compound": "S=C([S-])OC1CC2CC1C1CCCC21.[K+]", "note": "(stereo not drawn) [D609]", "values": [{"measurement": "Inhibition of PC-PLC hydrolysis of Pyro-PL-BHQ at 500 μM D609", "setting": "PC-PLC [5]; 500 μM D609, 0.5 U PC-PLC", "value": "Complete inhibition"}, {"measurement": "Fluorescence release from Pyro-PL-BHQ/PtdCho vesicles in presence of inhibitor", "setting": "PC-PLC [5]; FIG. 3A", "value": "inhibited"}, {"measurement": "IC50", "setting": "PC-PLC [5]; read-out: IC50 of inhibition of PC-PLC activity toward Pyro-PL-BHQ, 1 μM Pyro-PL-BHQ, MF 0.003 in egg-PtdCho dispersions, 0.5 U PC-PLC", "value": "34 ± 8", "unit": "µM"}, {"measurement": "Ki", "setting": "PC-PLC [5]; read-out: Ki (x-intercept of Km(app)/Vmax(app) vs. D609), Lineweaver-Burke plot of inhibition using 8, 50, 100 μM D609", "value": 250, "unit": "µM"}, {"measurement": "PC-PLC activity in tumor extracts as a function of D609 concentration", "setting": "PC-PLC [6]", "value": "decrease as a function of D609 concentration"}]}]}
